Experimental data taken from EP0470794A1, “Process for the preparation of nitriles” (ZENECA LIMITED, priority 1990, dated 1992).

Columns and labels:
[1] = tested on: angiotensin II-induced pressor responses; assay: Test C: antagonism of angiotensin II-induced pressor responses in vivo; conditions: Rattus norvegicus, iv; i.v. administration; rats; read-out: ED₅₀
Protocol: In general, compounds of formula VI as defined above show significant inhibition in Test B at a final concentration of 50 micromolar or much less. Test C: This in vivo test involves using terminally-anaesthetised or conscious rats in which an arterial catheter has been implanted under anaesthesia for the measurement of changes in blood pressure. The AII antagonistic effects of the test compound following oral or parenteral administration, are assessed against angiotensin II-induced pressor responses. To ensure that the effect is specific, the effect of the test compound on vasopressin-induced pressor responses may also be determined in the same preparation.

[2] = tested on: AII-induced contractions of isolated rabbit aorta; assay: Test B: antagonism of AII-induced contractions of isolated aorta; type: cell-based; conditions: Oryctolagus cuniculus, 37°C, average, read-out: average pA₂ (converted)
Protocol: In general, compounds of formula VI as defined above show significant inhibition in Test A at a concentration of 50 micromolar or much less. Test B: This in vitro test involves the measurement of the antagonistic effects of the test compound against AII-induced contractions of isolated rabbit aorta, maintained in a physiological salt solution at 37°C. In order to ensure that the effect of the compound is specific to antagonism of AII, the effect of the test compound on noradrenaline-induced contractions may also be determined in the same preparation.

`Cc1cc(OCc2ccc(-c3ccccc3-c3nnn[nH]3)cc2)c2ccccc2n1.Cl` [2-methyl-4-[(2′-(1H-tetrazol-5-yl)biphenyl-4-yl)methoxy]quinoline hydrochloride] was tested, and the ED50 [1] was 0.5 mg/kg and the Kb [2] was 1.12 nM.
